“Also recorded” adds a separate entry of the source. Like-named read-outs stand apart in the source and are kept apart here. Where a SMILES comes first, the peptide text is derived from it. Where no end group is shown, it is not given here. The star is where a group is joined. X2 = CC/C=C\C/C=C\C/C=C\CCCCCCCC(=O)*; Palmitoyl = CCCCCCCCCCCCCCCC(=O)*
What was measured:
HIV-1 = conditions: for Infectivity enhancing N fold at 1.3 µM: relative to virus only; for enhancement of HIV-1 infection / transduction (in words): 6.5 µM, 1.3 µM, 0.26 µM;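 for all read-outs here: TZM-bl reporter cells exposed to HIV-1 with peptide fibrils, infection read out as β-galactosidase luminescence, compared with virus alone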
Protocol: HIV-1 Infection Assay with TZM-bl cells: The effect of peptide fibrils on HIV-1 infection was studied via a luminescence assay for β-galactosidase, which was reported by TZM-bl cells upon infection. The HIV-1 infection assay was conducted in three technical replicates and repeated in three independent experiments unless stated otherwise.

[1] = TEM of peptide assemblies (fibril formation / assembly); assay type: physicochemical; conditions: for TEM morphology (in words): 1 mg/mL in PBS; for Assembly without hydrophob residue: corresponding peptide without hydrophobic moiety; for Assembly: peptide amphiphile
Protocol: The peptides were predissolved in DMSO to a concentration of 10 mg/mL. The fibril formation was induced by further diluting the solution to a final incubation concentration of 650 µM or 1 mg/mL in PBS as indicated in the text and incubated for 1 d (1 day) at rt (room temperature, 20 °C - 25 °C). Other concentrations as described herein were achieved by further dilution of preformed fibrils.
(§1) Transmission electron microscopy (TEM) measurements, Thioflavin (ThT), zeta-potential measurements for fibril characterization were prepared and conducted according to prior art procedures. […] Fibrils were defined as distinct, if no visible structures could be identified in fluorescence and brightfield microscopy.

[2] = Zeta-potential measurement (dynamic light scattering); assay type: physicochemical; conditions: for Zeta Potential / mV: 1 mg/mL, PBS
Protocol: Zeta-potential: 60 µL of the peptides (1 mg mL-1) were diluted in 600 µL, 1 mM KCI solution and placed in a disposable folded capillary cuvette. All zeta-potential measurements were conducted by dynamic light scattering technology (Zetasizer, Malvern Instruments) and in triplicates for each sample. The derived count rate of the zeta potential measurement was used as information on the light scattering intensity and turbidity of the sample as a further indicator for microscopic aggregation.

[3] = ATR-FT-IR determination of β-sheet content; assay type: physicochemical; conditions: for β-sheet amount: 1 mg/mL in PBS lyophilized, integral at 1630 cm^-1 relative to 1650-1700 cm^-1; for β-sheet content / %: peak integration of parallel β-sheet at 1630 cm-1, 2nd derivative of ATR-IR spectra
Protocol: ATR-FT-IR: ATR-IR spectra acquisition and the calculation of β-sheet content were conducted according prior art procedures. Briefly, FT-IR spectra of solid samples were recorded after lyophilization of fibril solutions using a Bruker Tensor II spectrometer equipped with a diamond crystal as ATR element with a spectral resolution of 2 cm^-1, each spectrum was an average of 64 scans. The data was processed with Origin software. β-sheet amount was determined by calculating the integral of the peak at 1630 cm-1 (β-sheet) relative to the integral between 1650-1700 cm-1 (native structure) from the 2nd derivative of the FT-IR spectra.

[4] = Fluorescence microscopy of ThT-stained fibrils (µm-sized aggregates); assay type: physicochemical; conditions: for fluorescent, µm-sized aggregates (ThT staining): 1 mg/mL stained with 50 µM ThT
Protocol: as §1
Fluorescence microscopy: 1 µL Fibrils (1 mg mL^-1) were stained with 9 µL, 50 µM ThT. 10 µL of the stained fibrils (0.1 mg mL^-1) were placed on a microscopy glass. Fluorescence microscopy measurements were performed on a Leica DMi8 microscope with 10x air objective and equipped with a Leica MC170 HD camera with a filter setting λem = 527/30 nm upon excitation at λex = 480/40 nm) and processed with the Leica LASX software.

HeLa cells = assay: Confocal laser scanning microscopy and degradation study with PA library and HeLa cells; assay type: cell-based; conditions: for association with cellular membranes: 2 µg added to 20.000 HeLa cells, 30 min; for degradability (in words) / Degradability / % (rel. to initial particles > 10 µm^2): HeLa cells; for degradability (in words): 3 days; for Degradability / % (rel. to initial particles > 10 µm^2): 3 d relative to 30 min
Protocol: In general, the procedure for determine whether a PA is degraded or not, is conducted by confocal laser scanning microscopy of Proteostat stained PAs which are added to Hela cells (2 µg peptide added to 20.000 cells). Microscopy is conducted at day 0 (d0, after 30 min of incubation) and at day 3 (d3, after 72 h of incubation). The number of aggregates >10 µm^2 is counted via 3D object counter in imaged in an area of 1008 µm × 1008 µm.
A PA is considered to be degradable if the number and the size of aggregates are reduced after 3 days. The efficiency is determined by the percentual degradation (aggregate number at d3 / aggregate number at d0). For the number of aggregation three technical replicates were evaluated for each sample. A large deviation represents a nonhomogeneous spatial distribution of aggregates.
Confocal laser scanning microscopy and degradation study with PA library and HeLa cells: Confocal laser scanning microscopy studies were performed for the visualization of the cell-PA interaction. HeLa cells were seeded one day prior to conducting the assay (20,000/well) in an 8-well IBIDI slide. […] The nucleus of the HeLa cells was stained with Hoechst 33342 (NucBlue™, Thermo Fisher Scientific). The peptide solution mixture was transferred to the HeLa cells and incubated for 30 min at 37°C before washing three times with PBS. […] For the evaluation of aggregate degradation, the samples were further incubated at 37°C for 3 d and analyzed without any additional washing step. […] The number of aggregates were determined by counting aggregates larger than the threshold 10 µm^2 in an area of 1008 × 1008 µm and repeated in three technical triplicates.

[5] = Zeta-potential measurement (dynamic light scattering); assay type: physicochemical
[6] = Thioflavin T (ThT) fluorescence assay; assay type: physicochemical; design: key to ThT: + = ThT active; - = no ThT fluorescence observed; conditions: ThT fluorescence; 1 mg/mL, PBS
Protocol: as §1, with “microscopy. A peptide fibril was considered as ThT-active if the fluorescence intensity was at least twice as strong compared to the control (PBS containing 10% DMSO).” for “microscopy.”

Molecule | Infectivity enhancing N fold at 1.3 µM (HIV-1) [N fold] | TEM morphology (in words) [1] | Assembly without hydrophob residue [1] | Assembly [1] | β-sheet amount [3] [%] | fluorescent, µm-sized aggregates (ThT staining) [4] | association with cellular membranes (HeLa cells) | degradability (in words) (HeLa cells) | enhances infectivity at 1.3 µM concentration, times more efficient compared to virus only infection (HIV-1) [times] | enhancement of HIV-1 infection / transduction (in words) (HIV-1) | β-sheet content / % [3] [%] | formation of µm-sized aggregates in aqueous medium / PBS (in words) [4] | ThT [6] | Zeta Potential / mV [2] | further results
CC/C=C\C/C=C\C/C=C\CCCCCCCC(=O)N[C@H](C(=O)N[C@H](C(=O)N[C@H](C(=O)N[C@@H](C)C(=O)N[C@@H](C)C(=O)N[C@@H](C)C(=O)N[C@@H](CCCCN)C(=O)N[C@@H](CCCCN)C(=O)N[C@@H](CCCCN)C(N)=O)C(C)C)C(C)C)C(C)C [Pat9] (X2-VVVAAAKKK-NH2) | 1±0 | failed to form fibrils in aqueous medium | No | No |  |  |  |  |  |  |  |  |  |  | zeta-potential (in words) [2]: almost neutral zeta-potential
CCCCCCCCCCCCCCCC(=O)N[C@H](C(=O)N[C@H](C(=O)N[C@@H](CCC(N)=O)C(=O)N[C@@H](CCCCN)C(=O)N[C@H](C(=O)N[C@@H](CCCCN)C(N)=O)[C@@H](C)CC)[C@@H](C)CC)[C@@H](C)CC [Pat15, C16-IIQKIK-NH2] (Palmitoyl-IIQKIK-NH2) | 4±1 | fibrillar morphologies | No | Yes | 45 | fluorescent, µm-sized aggregates | association with cellular membranes | degradable PA | 4 |  |  |  |  |  | Degradability / % (rel. to initial particles > 10 µm^2) (HeLa cells): -28%; Degradability / % (rel. to initial particles > 10 µm^2) (HeLa cells; listed as Pat 15): 28%; aggregate number decreases / degraded in presence of HeLa cells within 3 days (HeLa cells; d3 relative to d0): 28%; Infectivity enhancing N fold at 1.3 µM (HIV-1; listed as Pat 15): 4 N fold; Zeta-Potential / mV [5]: 12.6 mV
CCCCCCCCCCCCCCCC(=O)N[C@@H](C)C(=O)NCC(=O)NCC(=O)N[C@@H](CCCNC(=N)N)C(=O)N[C@H](C(=O)N[C@@H](CCCCN)C(N)=O)C(C)C [Pat18, C16-AGGRVK-NH2] (Palmitoyl-AGGRVK-NH2) | 3±1 | fibrillar morphologies | No | Yes | 56 | no fluorescent, µm-sized aggregates |  |  | 3 |  |  |  |  |  | Zeta-Potential / mV [5]: 15.9 mV
CCCCCCCCCCCCCCCC(=O)NCC(=O)N[C@@H](CCCCN)C(=O)N[C@H](C(=O)NCC(=O)N[C@@H](CO)C(=O)N[C@@H](CCCCN)C(N)=O)C(C)C [Pat30, C16-GKVGSK-NH2] (Palmitoyl-GKVGSK-NH2) | 2±1 | fibrillar morphologies | No | Yes | 41 | less fluorescent, µm-sized aggregates | no association with cellular membranes |  |  | do not efficiently enhance infectivity |  |  |  |  | infectivity enhancement at 1.3 µM concentration compared to virus only infection (in words) (HIV-1): does not enhance infectivity
CCCCCCCCCCCCCCCC(=O)N[C@@H](CCCCN)C(=O)N[C@H](C(=O)N[C@H](C(=O)N[C@@H](CO)C(=O)N[C@@H](Cc1ccccc1)C(=O)N[C@@H](CCCCN)C(N)=O)[C@@H](C)CC)[C@@H](C)CC [Pat32, C16-KIISFK-NH2] (Palmitoyl-KIISFK-NH2) | 2±1 | fibrillar morphologies | No | Yes | 46 | fluorescent, µm-sized aggregates | association with cellular membranes | cannot be degraded; also recorded: not efficiently degradable; also recorded: non-degradable PA |  |  |  |  |  |  | Degradability / % (rel. to initial particles > 10 µm^2) (HeLa cells): -84%; aggregate number increases (HeLa cells; d3 relative to d0): 84%; infectivity enhancement at 1.3 µM concentration compared to virus only infection (in words) (HIV-1): does not enhances infectivity
C16-disulfide-CVVVAAAKKK-NH2 (not fully specified (residue 1); printed as C16-disulfide-CVVVAAAKKK-NH2) [Pat2] | 4±2 | fibrillar morphologies | No | Yes | 57 | fluorescent, µm-sized aggregates | no visible association with cellular membranes |  | 4 | weak enhancers of HIV-1 infection |  |  |  |  | 
FQFKFKC-NH2 [P2, FQFKFKC-NH2] |  | Formation of fibrils; also recorded: twisted fibrils |  |  |  |  |  |  |  | inactive | 46 | does not form µm-sized aggregates in PBS | - | +10.1 ± 3.0 mV | 
NFYLQVNKINK-NH2 [Pat46] |  | fibrillar morphologies |  |  | 49 | fluorescent, µm-sized aggregates | association with cellular membranes | not efficiently degradable; also recorded: non-degradable PA |  | potent enhancers of HIV-1 infection |  |  |  |  | aggregate number decreases / degraded in presence of HeLa cells within 3 days (HeLa cells; d3 relative to d0): stays also similar; TEM morphology (in words) ([1]; listed as NFYLQVNKINK): unexpectedly forming fibrils by themselves
VVVAAAEEE-NH2 [P3] |  | amorphous aggregates; also recorded: non-fibrillar amorphous aggregates |  |  |  |  |  |  |  |  | 46 | does not form µm-sized aggregates in PBS | - | -21.2 ± 1.5 mV | 
VVVAAAKKK-NH2 [P1] |  | amorphous aggregates; also recorded: non-fibrillar amorphous aggregates |  |  |  |  |  |  |  | inactive | 48 | does not form µm-sized aggregates in PBS | - | -2.3 ± 0.4 mV | 

From patent publication EP4458977A1, “SELF-ASSEMBLING PEPTIDE AMPHIPHILES AS RETROVIRAL TRANSDUCTION ENHANCERS” (Max-Planck-Gesellschaft zur Förderung der Wissenschaften …, priority 2023, dated 2024)
